Results reported in a melting point compilation (Tetko et al.; mined from patent text by program, amines drawn as free bases though some values may be those of a salt).
Residues, ends and D or L forms follow the SMILES beside them. *: point of attachment. Cbz = O=C(OCc1ccccc1)*

| SMILES | melting point |
| --- | --- |
| CC12CC(N3CCC4(CC3)OCCO4)C(O)CC1CCC1C2CCC2(C)C(O)C(N3CCC(O)CC3)CC12 (configuration not stated) | 253 to 255 °C |
| O=C(NC1CCCCC1)NS(=O)(=O)c1ccc2c(c1)CCN(C(=O)N1CCCCCC1)CC2 | 155 to 156 °C |
| COc1ccc(CN2C(=O)[C@H](CO)[C@H]2S(=O)(=O)C(C)(C)C)c(OC)c1 | 124 to 125 °C |
| O=C(c1cc(Cl)ccc1Cl)N1CCNC1=Nc1ccc(Cl)cc1Cl | 205 to 206 °C |
| O=c1oc2cc(Cl)cnc2n1CO | 137 to 139 °C |
| COC(=O)C1CC(O)CN1C(=O)c1cc(OC)c(OC)c(OC)c1 (configuration not stated) | 126 °C |
| CCCCN1C(=O)c2ccc(O)cc2C1=O | 126 to 127 °C |
| C#CCSc1nc(=O)n(CC#C)cc1F | 135 °C |
| Cc1cc(N2CN=C(C(F)(F)F)O2)cc(C)c1OCCCc1ccc(C(C)(F)F)nn1 | 54.5 °C |
| Cc1cccc(C)c1N1C(=N)N(c2c(C)cccc2C)C(C)C1C (configuration not stated) | 155 to 157 °C |
| CCCCCCCCOc1cc(-n2c(=O)cc(C(F)(F)F)n(C)c2=O)c(F)cc1Cl | 60 to 63 °C |
| CC(C)(C)C12OOC1(c1ccc(C(=O)N3CCOCC3)c(O)c1)OCC2(C)C (configuration not stated) | 114 to 116 °C |
| c1ccc(N2CCN(CCCc3[nH]nc4c3CCCC4)CC2)cc1 | 92 to 94 °C |
| CC[Si](CC)(CC)CSc1cc(C(C)(C)C)c(O)c(C(C)(C)C)c1 | 58 to 60 °C |
| Cc1cc(C2=NN(c3nncs3)C(C)Cc3cc4c(cc32)OCO4)ccc1[N+](=O)[O-] (configuration not stated) | 182 to 189 °C |
| CCOC(=O)c1c(-c2cnccn2)ssc1=S | 125 °C |
| CC(C=CC=C(C)c1cc2c(s1)C(C)(C)CCC2(C)C)=CC(=O)O | 226 to 228 °C |
| CCCNC1=NS(=O)(=O)c2sc(C)cc2N1 | 263 to 264 °C |

Results, then the compound that gave them:

| melting point | SMILES |
| --- | --- |
| 137 to 138 °C | COC(=O)c1cc(Br)c2c(c1Cl)OC(c1ccccc1)(c1ccccc1)O2 |
| 193 to 196 °C | CCCn1c(COCC)nc2c(N)nc3ccc(OC(=O)N4CCOCC4)cc3c21 |
| 228 to 229 °C | O=c1oc2ccccc2cc1S(=O)(=O)Cc1ccc(Cl)cc1Cl |
| 218 to 221 °C | O=C(Sc1ccc(O)cc1)c1cccc(C(=O)Sc2ccc(O)cc2)c1 |
| < 50 °C | Nc1ccc2oc(Cc3ccccc3)cc2c1 |
| 136 °C | CC(C)[C@]1(c2ccccc2OCC#CCCl)Sc2ccccc2N(C)C1=O |
| 169 to 170 °C | COc1cccc(-c2c(NC(=O)Nc3c(C(C)C)cccc3C(C)C)c(=O)n(C)c3ncccc23)c1 |
| 62 to 64 °C | O=[N+]([O-])c1ccccc1N1CCc2ccccc21 |
| 194 to 195 °C | COC(=O)C(=O)N(N=C(C#N)c1ccc(C#N)cc1)c1c(Cl)cc(C(F)(F)F)cc1Cl |
| 78 to 80 °C | C=CCn1cc(Cc2ccc(C(=O)O)cc2OC)c2cc(CC(=O)NCCCC)ccc21 |
| 204 to 206 °C | COC(=O)[C@H](Cc1c[nH]cn1)NC(=O)[C@H](Cc1ccccc1)NC(=O)[C@H](Cc1ccccc1)NC(=O)OCc1ccccc1 (Cbz-Phe-Phe-His-OMe) |
| 82 to 87 °C | CC(C)C[C@H](NC(=O)OCc1ccccc1)C(=O)N[C@@H](Cc1ccccc1)C(=O)CSCc1ccccn1 |
| 195 to 197 °C | CN1CCN(c2nccc(Oc3ccc(NC(=O)c4cc(F)cc(N5CCOCC5)c4)c4ccccc34)n2)CC1 |
| 200 °C | CS(=O)(=O)C(=C1CN(C(c2ccccc2)c2ccccc2)C1)c1cccc(Br)c1 |
| 286 to 290 °C | CS(=O)(=O)c1ccc(-c2nc(C(F)(F)F)nc(NN)c2-c2ccc(F)cc2)cc1 |
| 168 to 170 °C | Cc1nc(NC(=O)c2ccc(OC(F)(F)F)cc2)sc1C(=O)NCc1ccccc1 |
| 131 to 134 °C | O=[N+]([O-])c1ccc2c(ccn2Cc2cccnc2)c1 |
| 128 °C | COc1ccc(C(=O)NCCOc2cccc3c2OCCO3)c(OC)c1OC |
| 195 °C | c1ccc(Cn2cnc(-c3cnc(-c4ccccc4)nc3)c2)cc1 |
